Like-named read-outs stand apart in the source and are kept apart here.
Columns and labels:
[1] = system: Cytoxan-induced alopecia in rat pups; experiment: Cytoxan-induced alopecia in rat pups; assay type: in vivo
Protocol: Induction of alopecia by cytoxan (CTX). Lactating Sprague Dawley mother rats with rat pups were purchased from Harlan Sprague Dawley (Indianapolis, Ind.). The mother rats were given food and water ad libitum. The rats pups were tested in the model of chemotherapy-induced alopecia described by Hussein A. M. et al., Science: 249, 1564 (1990). Cytoxan (CTX), a chemotherapeutic widely used in the treatment of cancer, was used to induce alopecia in the rats. A common side effect of cytoxan treatment in patients is alopecia. Lyophilized vials of Cytoxan were obtained from Mead-Johnson. To produce CTX-induced alopecia, 11 day old rat pups, which are at the peak of coat growth, were injected i.p. with 30-35 μg of CTX/gm body weight. CTX was dissolved in water. By day 18 of life, the animals have shed virtually 100% of their coat leaving bare skin on their backs. Thus, topical application of protective drugs to the animal's back prior to the CTX insult provides a suitable test for prevention of chemotherapy-induced alopecia. A separate alopecia assay was also developed in which whole-body irradiation on day 11 of life was used as the insult. This assay is described in further detail in Example 12 which follows.
In the earliest studies with chemoprotective polyamines, the molecules were prepared in a topical delivery vehicle consisting of from 50-70% ethanol in water, depending on the solubility of the compound. The compounds in ethanol/water solution from 50-150 µl in volume were topically administered to the backs of the pups once per day before and after CTX challenge. Using a micropipette, the formulation was applied to an approximately 2 cm2 section of skin on the backs of the rat pups. Specifically, the pups were treated once daily for the 4-5 days before CTX challenge, once on the day of CTX challenge and once daily for 5 days afterwards. Control groups consisted of pups receiving only delivery vehicle. […]
In the earliest studies with chemoprotective polyamines, hair loss was evaluated using a modified alopecia-scoring index described by Chen G. et al., Int. […] In the later studies with aminothiols a simpler scoring scale was adopted in which coat density was scored on a 0-100 scale as “% of normal coat density.”
Method: To assess the ability of topical treatments to prevent Cytoxan-induced alopecia we used a published protocol (Hussein et al., Science. 249(4976):1564-6, 1990) in which 11 day old neonate rat pups (Sprague-Dawley) receive a total of 6 topical skin treatments of active agent(s) during the 5 hr before and 2 hr after a single ip dose of Cytoxan (32 ug/gm b.w.). […] The density of the rat coats in the topical treatment area was scored on day 18 of life for animals injected with Cytoxan.

[2] = system: p21 protein in 23SK human skin cells; experiment: p21 induction by western analysis; assay type: cell-based; settings: 23SK cells, 30 hr exposure
Protocol: FIGS. 3A and 3B illustrate the level of induced p21 protein seen in diploid human fibroblasts after a 30 hr exposure to each of the indicated chemoprotective polyamines. […] In these experiments, the 23SK human skin cells were exposed for 30 hr to an “IC80” dose of each of the indicated chemoprotective polyamines and then lysed. Cell extracts were then prepared in order to measure p21 levels by western analysis (FIG. 3A).
FIG. 3 illustrates that chemoprotective polyamines are able to induce expression of the negative cell cycle regulatory protein, p21, after exposing the human skin cells to the polyamine molecules. […] In these experiments, the 23SK human skin cells were exposed for 30 hr to an “IC80” dose of each of the indicated chemoprotective polyamines and then lysed. Cell extracts were then prepared in order to measure p21 levels by western analysis (FIG. 3A). Although the ability of modified polyamines to induce p21 is known in the literature (Kramer, D. et al., Cancer Res. 59:1278-1286, 1999), it is a novel aspect of this invention that those chemoprotective polyamines with longer aliphatic “arms” were better able to induce expression of p21 as shown in FIG. 4.

[3] = target: DNA; experiment: DNA binding/precipitation from solution; settings: Expt. 1; read-out: DNA Bind/ppt. IC50 (uM), Expt. 1
From the text: The chemoprotective polyamines provided herein are also able to bind, denature and precipitate DNA from solution. As the skilled artisan will appreciate, as the concentration of polyamine is increased, there is a point where polyamine binding to helical B-DNA induces single-stranded ‘bubbles’ and conversion to other forms of DNA structure, such as Z-DNA (Feuerstein, B. et al., Nuc. Acids Res. 17:6883-6892, 1989; Basu, H. and Marton, L., Biochem. J. 244:243-246, 1987), as well as precipitating the DNA from solution.

[4] = system: 23SK skin cells; experiment: Flow cytometry cell cycle distribution; assay type: cell-based, human; settings: IC80 dose
From the text: FIGS. 5A-5D are cell histograms showing the results from flow cytometry analysis of chemoprotective polyamine-treated 23SK skin cells.
In FIG. 5, cell histograms showing the results from flow cytometry analysis of chemoprotective polyamine-treated 23SK skin cells are shown. […] The transient nature of the cell cycle block induced by chemoprotective polyamines is believed to be an important aspect of their efficacy, i.e., their ability to block cell cycle progression in stem cells during the course of chemo- or radiotherapy, and the resumption of normal stem cell division after a given cancer therapy course has been completed.

[5] = system: primary, diploid fibroblasts isolated from human skin; experiment: Growth inhibition of primary diploid human skin fibroblasts; assay type: cell-based; settings: 50% inhibition of human skin fibroblast growth
Protocol: The in vitro growth inhibitory effects of certain of the chemoprotective polyamines of the invention were measured using primary, diploid fibroblasts isolated from human skin.

Compound | protection against Cytoxan-induced alopecia ([1]; topical, alcohol:water vehicle, once per day five days before and five days after single systemic Cytoxan dose) | p21 fold-induction at IC80 Dose [2] | IC50 [3] | Cell Cycle Distribution At IC80 Dose (%) G1 ([4]; G1) | Cell Cycle Distribution At IC80 Dose (%) G2/M ([4]; G2/M) | Cell Cycle Distribution At IC80 Dose (%) S ([4]; S) | IC50 ([5]; Expt. 1, read-out: IC50 (uM), Expt. 1) | IC50 ([5]; Expt. 2, read-out: IC50 (uM), Expt. 2) | Alopecia Score (% Normal Coat Density in Topical Treatment Area) ([1]; Resveratrol 5 umol/day alone, ip Cytoxan 32 ug/gm b.w., Experiment 564-567)
CCNCCCCNCC=C(CNCC)CNCCCCNCC [PrC-110] | excellent efficacy | 2.91 fold | 270 µM | 60% | 14% | 26% | 1680 µM | 809 µM | –
Oc1ccc(/C=C/c2cc(O)cc(O)c2)cc1 [Resveratrol, trihydroxy-trans-stilbene, reference compound] | – | – | – | – | – | – | – | – | 5%

Reference: patent US7314959B2, “Amino thiol compounds and compositions for use in conjunction with cancer therapy” (Wisconsin Alumni Research Foundation, priority 2003, dated 2008)
